Active and inactive are the calls of the source. The calls are words filed in the database; no cut-off is given here.
What was measured:
Danio rerio [1] = species: Danio rerio; experiment: Cardioprotective activity against doxorubicin-induced Tg(cmlc2: GFP) Zebrafish assessed as reduction in cTnT mRNA level measured at 72 hrs post fertilization by qPCR analysis; type: functional, organism-based; conditions: dose <= 5.0 µM
Danio rerio [2] = species: Danio rerio; experiment: Cardioprotective activity against doxorubicin-induced Tg(cmlc2: GFP) Zebrafish assessed as restoration of normal heart structure at 5 uM measured at 72 hrs post fertilization; type: functional, organism-based
Danio rerio [3] = species: Danio rerio; experiment: Cardioprotective activity against doxorubicin-induced Tg(cmlc2: GFP) Zebrafish assessed as reduction in Anp mRNA level measured at 72 hrs post fertilization by qPCR analysis; type: functional, organism-based; conditions: dose <= 5.0 µM
Danio rerio [4] = experiment: Cardioprotective activity against doxorubicin-induced Zebrafish cardiomyopathy model assessed as survival rate at 5 uM fertilized for 24 hrs followed by compound administration for 72 hrs and measured at 96 hrs post fertilization by inverted fluorescence microscopic analysis; type: functional
Danio rerio [5] = experiment: Cardioprotective activity against doxorubicin-induced Tg(cmlc2: GFP) Zebrafish assessed as […] at 5 uM measured at 72 hrs post fertilization; type: functional, organism-based
[6] = Toxicity in zebrafish embryos assessed as survival at upto 40 uM fertilized for 24 hrs followed by compound administration for 72 hrs and measured at 96 hrs post fertilization; design: species or system Danio rerio; conditions: in vivo
Danio rerio [7] = species: Danio rerio; experiment: Cardioprotective activity against doxorubicin-induced Tg(cmlc2: GFP) Zebrafish assessed as reduction in Bnp mRNA level measured at 72 hrs post fertilization by qPCR analysis; type: functional, organism-based
Danio rerio [8] = experiment: Cardioprotective activity against doxorubicin-induced Zebrafish cardiomyopathy model at 5 to 15 uM fertilized for 24 hrs followed by compound administration for 72 hrs and measured at 96 hrs post fertilization by inverted fluorescence microscopic analysis; type: functional, organism-based; conditions: dose 5-15 µM
H9c2 [9] = experiment: Induction of mitochondrial membrane potential loss in doxorubicin-induced rat H9c2 cells incubated for 30 mins in prsence of 3-TYP by JC-1 staining based fluorescence microscopic analysis; type: cell-based
H9c2 [10] = experiment: Cardioprotective activity against doxorubicin-induced rat H9c2 cells assessed as downregulation of Bnp mRNA level upto 10 uM qPCR analysis; type: functional, cell-based
H9c2 [11] = experiment: Cardioprotective activity against doxorubicin-induced rat H9c2 cells assessed as increase in cell viability at 10 uM incubated for 24 hrs by CCK-8 assay; type: functional, cell-based
H9c2 [12] = experiment: Cardioprotective activity against doxorubicin-induced rat H9c2 cells assessed as reduction in LDH release upto 10 uM in presence of 3-TYP; type: functional, cell-based
H9c2 [13] = experiment: Antioxidant activity against doxorubicin-induced rat H9c2 cells assessed as increase in SOD level upto 10 uM; type: functional, cell-based
Mus musculus [14] = experiment: Cardioprotective activity against doxorubicin-induced C57BL/6 mouse cardiomyopathy model assessed as collagen fraction volume at 2.5 mg/kg, ip administered for 7 days by Sirius staining based analysis; type: functional, organism-based; conditions: time 7.0 day
Mus musculus [15] = species: Mus musculus; experiment: Antioxidant activity against doxorubicin-induced C57BL/6 mouse assessed as decrease in MDA level in heart; type: functional, organism-based
H9c2 [16] = experiment: Induction of ROS accumulation in doxorubicin-induced rat H9c2 cells transfected with SIRT3 siRNA assessed as reduction in fluorescence intensity at 10 uM incubated for 30 min in presence of 3-TYP by DCFH-DA and PI staining based microscopic analysis; type: functional, cell-based
H9c2 [17] = experiment: Cardioprotective activity against doxorubicin-induced rat H9c2 cells assessed as reduction in LDH release upto 10 uM; type: functional, cell-based
H9c2 [18] = experiment: Antioxidant activity against doxorubicin-induced rat H9c2 cells assessed as decrease in MDA level upto 10 uM; type: functional, cell-based
Danio rerio [19] = species: Danio rerio; experiment: Cardioprotective activity against doxorubicin-induced Tg(cmlc2: GFP) Zebrafish at 5 uM measured at 72 hrs post fertilization; type: functional, organism-based
Mus musculus [20] = experiment: Cardioprotective activity against doxorubicin-induced C57BL/6 mouse cardiomyopathy model assessed as upregulation of […] level at 2.5 mg/kg, ip administered for 7 days by Western blot analysis; type: functional, organism-based; conditions: time 7.0 day
Mus musculus [21] = species: Mus musculus; experiment: Antioxidant activity against doxorubicin-induced C57BL/6 mouse assessed as increase in GSH level in heart; type: functional, organism-based
Mus musculus [22] = experiment: Cardioprotective activity against doxorubicin-induced C57BL/6 mouse cardiomyopathy model assessed as reduction in cTnT mRNA level at 2.5 mg/kg, ip administered for 7 days; type: functional, organism-based; conditions: time 7.0 day
Mus musculus [23] = experiment: Cardioprotective activity against doxorubicin-induced C57BL/6 mouse cardiomyopathy model assessed as upregulation of SOD2 level at 2.5 mg/kg, ip administered for 7 days by Western blot analysis; type: functional, organism-based; conditions: time 7.0 day
H9c2 [24] = experiment: Upregulation of SIRT3 expression in rat H9c2 cells upto 10 uM by Western blot analysis; type: functional, cell-based
H9c2 [25] = experiment: Upregulation of OPA1 expression in rat H9c2 cells upto 10 uM by Western blot analysis; type: functional, cell-based
Danio rerio [26] = species: Danio rerio; experiment: Cardioprotective activity against doxorubicin-induced Tg(cmlc2: GFP) Zebrafish at 15 uM measured at 72 hrs post fertilization; type: functional, organism-based
H9c2 [27] = experiment: Induction of mitochondrial membrane potential loss in doxorubicin-induced rat H9c2 cells transfected with SIRT3 siRNA incubated for 30 mins in prsence of 3-TYP by JC-1 staining based fluorescence microscopic analysis; type: cell-based
H9c2 [28] = experiment: Induction of ROS accumulation in doxorubicin-induced rat H9c2 cells assessed as reduction in fluorescence intensity upto 10 uM incubated for 30 min in presence of 3-TYP by DCFH-DA and PI staining based microscopic analysis; type: functional, cell-based
H9c2 [29] = experiment: Upregulation of SOD2 expression in doxorubicin-induced rat H9c2 cells transfected with SIRT3 siRNA at 10 uM by Western blot analysis; type: functional, cell-based
H9c2 [30] = experiment: Cardioprotective activity against doxorubicin-induced rat H9c2 cells assessed as increase in cell viability at 10 uM incubated for 24 hrs in presence of 3-TYP by CCK-8 assay; type: functional, cell-based
H9c2 [31] = experiment: Antioxidant activity against doxorubicin-induced rat H9c2 cells assessed as increase in GSH level upto 10 uM in presence of 3-TYP; type: functional, cell-based
H9c2 [32] = experiment: Antioxidant activity against doxorubicin-induced rat H9c2 cells assessed as increase in GSH level upto 10 uM; type: functional, cell-based
H9c2 [33] = experiment: Cardioprotective activity against doxorubicin-induced rat H9c2 cells assessed as downregulation of cTnT mRNA level upto 10 uM qPCR analysis; type: functional, cell-based
H9c2 [34] = experiment: Induction of mitochondrial membrane potential loss in doxorubicin-induced rat H9c2 cells incubated for 30 mins by JC-1 staining based fluorescence microscopic analysis; type: cell-based; conditions: dose 1-10 µM
H9c2 [35] = experiment: Cardioprotective activity against doxorubicin-induced rat H9c2 cells assessed as downregulation of Anp mRNA level upto 10 uM qPCR analysis; type: functional, cell-based
H9c2 [36] = experiment: Antioxidant activity against doxorubicin-induced rat H9c2 cells assessed as increase in SOD level upto 10 uM in presence of 3-TYP; type: functional, cell-based
H9c2 [37] = experiment: Cardioprotective activity against doxorubicin-induced rat H9c2 cells assessed as increase in cell viability at 10 uM incubated for 24 hrs in presence of EX527 by CCK-8 assay; type: functional, cell-based
H9c2 [38] = experiment: Upregulation of SOD2 expression in rat H9c2 cells upto 10 uM by Western blot analysis; type: functional, cell-based
Mus musculus [39] = experiment: Cardioprotective activity against doxorubicin-induced C57BL/6 mouse cardiomyopathy model assessed as reduction in Anp mRNA level at 2.5 mg/kg, ip administered for 7 days; type: functional, organism-based; conditions: time 7.0 day
Mus musculus [40] = experiment: Cardioprotective activity against doxorubicin-induced C57BL/6 mouse cardiomyopathy model assessed as reduction in Bnp mRNA level at 2.5 mg/kg, ip administered for 7 days; type: functional, organism-based; conditions: time 7.0 day
H9c2 [41] = experiment: Cardioprotective activity against doxorubicin-induced rat H9c2 cells assessed as increase in cell viability incubated for 24 hrs by CCK-8 assay; type: functional, cell-based; conditions: dose 1-10 µM
Mus musculus [42] = experiment: Cardioprotective activity against doxorubicin-induced C57BL/6 mouse cardiomyopathy model assessed as upregulation of SIRT3 level at 2.5 mg/kg, ip administered for 7 days by Western blot analysis; type: functional, organism-based; conditions: time 7.0 day
H9c2 [43] = experiment: Antioxidant activity against doxorubicin-induced rat H9c2 cells assessed as decrease in MDA level upto 10 uM in presence of 3-TYP; type: functional, cell-based
Mus musculus [44] = experiment: Cardioprotective activity against doxorubicin-induced C57BL/6 mouse cardiomyopathy model assessed as collagen fraction volume at 2.5 mg/kg, ip administered for 7 days by masson staining based analysis; type: functional, organism-based; conditions: time 7.0 day
H9c2 [45] = experiment: Upregulation of OPA1 expression in doxorubicin-induced rat H9c2 cells transfected with SIRT3 siRNA at 10 uM by Western blot analysis; type: functional, cell-based
H9c2 [46] = experiment: Induction of ROS accumulation in doxorubicin-induced rat H9c2 cells assessed as reduction in fluorescence intensity incubated for 30 min by DCFH-DA and PI staining based microscopic analysis; type: functional, cell-based; conditions: dose 1-10 µM
Danio rerio [47] = experiment: Cardioprotective activity against doxorubicin-induced Zebrafish cardiomyopathy model assessed as survival rate at 15 uM fertilized for 24 hrs followed by compound administration for 72 hrs and measured at 96 hrs post fertilization by inverted fluorescence microscopic analysis; type: functional
Danio rerio [48] = experiment: Cardioprotective activity against doxorubicin-induced Zebrafish cardiomyopathy model assessed as survival rate at 5 to 15 uM fertilized for 24 hrs followed by compound administration for 72 hrs and measured at 96 hrs post fertilization by inverted fluorescence microscopic analysis; type: functional; conditions: dose 5-15 µM

In the case of `C[C@@]12CC[C@@H]3[C@@](CC[C@H]4[C@@]3(C)CCC[C@@]4(C)C(=O)N3CCN(C(=O)C4=C(C(=O)O)CCCC4)CC3)(CC1=O)C2`, the Activity (Danio rerio [1]) is reported as “Dose-Dependent Effect”, the Activity (Danio rerio [2]) is reported as “Active” and the Activity (Danio rerio [3]) is reported as “Dose-Dependent Effect”. For the same compound, the Activity (Danio rerio [4]) was 85%, the Activity (Danio rerio [5]) was “Active” and the Activity [6] was “Non-Toxic”. The Activity (Danio rerio [7]) was “Dose-Dependent Effect”.

In the case of `CC1CCCC(C(=O)O)C1C(=O)N1CCN(C(=O)[C@]2(C)CCC[C@@]3(C)[C@@H]4CC[C@@]5(C)C[C@]4(CC[C@@H]32)CC5=O)CC1` (some centres not stated), the Activity (Danio rerio [8]) is reported as “Active”.

With `C[C@@]12CC[C@@H]3[C@@](CC[C@H]4[C@@]3(C)CCC[C@@]4(C)C(=O)N3CCN(C(=O)CCCC(=O)O)CC3)(CC1=O)C2` the Activity (Danio rerio [8]) was “Active”.

With `C[C@@]12CC[C@@H]3[C@@](CC[C@H]4[C@@]3(C)CCC[C@@]4(C)C(=O)N3CCN(C(=O)c4ccccc4C(=O)O)CC3)(CC1=O)C2` the Activity (H9c2 [9]) was “Active”, the Activity (H9c2 [10]) was “Active” and the Activity (H9c2 [11]) was “Active”. For the same compound, the Activity (H9c2 [12]) was “Active”, the Activity (H9c2 [13]) was “Active” and the Activity (Danio rerio [1]) was “Dose-Dependent Effect”. For the same compound, the Activity (Mus musculus [14]) was “Active”, the Activity (Mus musculus [15]) was “Active” and the Activity (H9c2 [16]) was “Active”. For the same compound, the Activity (H9c2 [17]) was “Active”, the Activity (H9c2 [18]) was “Active” and the Activity (Danio rerio [19]) was “Active”. For the same compound, the Activity (Mus musculus [20]) was “Active”, the Activity (Danio rerio [2]) was “Active” and the Activity (Mus musculus [21]) was “Active”. The Activity (Mus musculus [22]) was “Active”, the Activity (Mus musculus [23]) was “Active” and the Activity (H9c2 [24]) was “Active”. For the same compound, the Activity (H9c2 [25]) was “Active”, the Activity (Danio rerio [26]) was “Active” and the Activity (H9c2 [27]) was “Active”. For the same compound, the Activity (H9c2 [28]) was “Active”, the Activity (H9c2 [29]) was “Active” and the Activity (H9c2 [30]) was “inactive”. The Activity (H9c2 [31]) was “Active”, the Activity (H9c2 [32]) was “Active” and the Activity (Danio rerio [3]) was “Dose-Dependent Effect”. For the same compound, the Activity (H9c2 [33]) was “Active”, the Activity (H9c2 [34]) was “Dose-Dependent Effect” and the Activity (H9c2 [35]) was “Active”. For the same compound, the Activity (H9c2 [36]) was “Active”, the Activity (H9c2 [37]) was “inactive” and the Activity (H9c2 [38]) was “Active”. The Activity (Mus musculus [39]) was “Active”, the Activity (Mus musculus [40]) was “Active” and the Activity (H9c2 [41]) was “Dose-Dependent Effect”. The Activity (Mus musculus [42]) was “Active”, the Activity (Danio rerio [5]) was “Active” and the Activity (H9c2 [43]) was “Active”. The Activity (Mus musculus [44]) was “Active”, the Activity (Danio rerio [7]) was “Dose-Dependent Effect” and the Activity (H9c2 [45]) was “Active”. The Activity (H9c2 [46]) was “Dose-Dependent Effect”.

For `CC(C)(CC(=O)O)C(=O)N1CCN(C(=O)[C@]2(C)CCC[C@@]3(C)[C@@H]4CC[C@@]5(C)C[C@]4(CC[C@@H]32)CC5=O)CC1`, the Activity (Danio rerio [8]) was “Active”.

With `C[C@@]12CC[C@@H]3[C@@](CC[C@H]4[C@@]3(C)CCC[C@@]4(C)C(=O)N3CCN(C(=O)CCC(=O)O)CC3)(CC1=O)C2` the Activity (Danio rerio [8]) was “Active”, the survival at 15 µM (Danio rerio [47]) was 50% and the survival at 5 µM (Danio rerio [4]; Danio rerio) was 50%.

For `COc1cccc(C(=O)N2CCN(C(=O)[C@]3(C)CCC[C@@]4(C)[C@@H]5CC[C@@]6(C)C[C@]5(CC[C@@H]43)CC6=O)CC2)c1OC`, the Survival (Danio rerio [48]) was 86%.

Source: ChEMBL document CHEMBL5543130, “Design, Synthesis, and In Vivo Evaluation of Isosteviol Derivatives as New SIRT3 Activators with Highly Potent Cardioprotective Effects” (J Med Chem, 2024)
